Values of other authors as cited in patent US9688630B2, “3,3′-disubstituted indolines as inhibitors of cholesterol ester transfer protein” (Merck Sharp & Dohme Corp., priority 2013, dated 2017).

Conditions: torcetrapib and atorvastatin concomitantly, compared with atorvastatin alone; cited from earlier work

**Q.** For CCOC(=O)N1c2ccc(C(F)(F)F)cc2[C@@H](N(Cc2cc(C(F)(F)F)cc(C(F)(F)F)c2)C(=O)OC)C[C@H]1CC [torcetrapib], which incidence of mortality is on record?
**A.** higher incidence of mortality
